Assays:
[1] = test system: intraperitoneal infiltration of eosinophils; experiment: Intraperitoneal infiltration of eosinophils in rat (Ascaris extract induced); format: in vivo; details: 3 mg/kg orally once a day for 9 days; Asc-sensitized male Wistar rats; eosinophils counted 48 hours after antigen induction
Description: Ascaris extract (Asc, protein amount 8 mg) was intraperitoneally administered to male Wistar rats to sensitize them. Seven days later, 4 mg protein amount of Asc was intraperitoneally administered to induce intraperitoneal infiltration of eosinophils. Forty-eight hours after the antigen induction, abdominal cavity was washed, and the infiltrated eosinophils were counted. The test compound (3 mg/kg) was orally administered once a day for 9 days from the day of antigen sensitization to one day before recovery of the infiltrated intraperitoneal cells.

[2] = test system: adhesion of eosinophils to vascular endothelial cells; experiment: Inhibition of adhesion of eosinophils to TNF-treated HUVEC; format: cell-based; details: test compound concentration at TNF treatment and adhesion reaction; HUVEC treated with 100 U/ml TNF for 6 hours; adhesion reaction 20 minutes; human peripheral blood eosinophils
Description: Human umbilical vein-derived endothelial cells (HUVEC) were placed in a single layer in a 96 well plate and treated with 100 U/mi tumor necrosis factor (TNF) for 6 hours. The eosinophils obtained from peripheral blood of healthy human were fluorescence-labeled and layered on the TNF-treated HUVEC. After adhesion reaction for 20 minutes, unadhered eosinophils were removed by washing and fluorescent intensity of each well of the plate was measured to determine the eosinophils adhered to the HUVEC. The test compound was added so that the concentration at TNF treatment and adhesion reaction was 10-^SM.

[3] = test system: infiltration of eosinophils in the airway; experiment: Infiltration of eosinophils into bronchovesicles in rats (ovalbumin induced); format: in vivo; details: 10 mg/kg orally 5 minutes before and 5 hours after antigen induction; OA-sensitized male BN rats; bronchial wash 24 hours later
Description: An ovalbumin (OA) antigen (10 mg/kg) was intramuscularly administered to male BN rats, and 5 x 10^10 nonvial Bordetella pertussis cells were intraperitoneally administered to sensitize them. Fourteen days later, the rats were exposed to 2% OA to induce infiltration of eosinophils in the airway. Twenty-four hours later, bronchial tubes were washed and infiltrated cells were recovered to count the infiltrated eosinophils. The test compound (10 mg/kg) was orally administered 5 minutes before and 5 hours after the induction with antigen.

SMILES	Suppression of infiltration of eosinophils (%) [1] [%]	Suppression of adhesion of eosinophils (%) [2] [%]	Suppression of infiltration of eosinophils (%) [3] [%]
N#Cc1cc(N)c(Cl)c(NC(=O)CO)c1 [3-amino-4-chloro-5-(hydroxyacetylamino)benzonitrile]	54	74	48
COCC(=O)Nc1cc(C#N)cc(N)c1Cl [3-amino-4-chloro-5-(methoxyacetylamino)benzonitrile]	42	62	56
CC(=O)OCC(=O)Nc1cc(C#N)cc(N)c1Cl [3-(acetoxyacetylamino)-5-amino-4-chlorobenzonitrile]	55	70	53

— patent EP0687468A2, “Pharmaceutical composition for suppressing infiltration of eosinophils” (Toyo Boseki Kabushiki Kaisha, priority 1994, dated 1995)
